Numbered stars: 1 amine (or outer) side, 2 acyl side, 3 side chain; on linkers, the order of the positions; unused ones are H or OH. Bridge positions count the residues as written; N and C are the ends. Square brackets hold non-standard residues; d marks the D form. Peptide text beside a SMILES is read from it. * marks the point of attachment. ξ: configuration not given here. X3 = NC(=O)[C@H](CCCCNC(=O)CN1CCN(CC(=O)O)CCN(CC(=O)O)CCN(CC(=O)O)CC1)NC(=O)CCC(=O)NCCCOCCOCCOCCCN*; X6 = NC(=O)[C@H](CCCCNC(=O)CCCC[C@@H]1SC[C@@H]2NC(=O)N[C@@H]21)NC(=O)CCC(=O)NCCCOCCOCCOCCCN*; X2 = O=C(O)CN1CCN(CC(=O)O)CCN(CC(=O)NCCCOCCOCCOCCCN*)CCN(CC(=O)O)CC1; mXylylene = c1cc(C[*:1])cc(C[*:2])c1; Suc = O=C(CCC(=O)[*:2])[*:1]; Nle = CCCC[C@H](N)C(=O)O; Hexanoyl = CCCCCC(=O)*; ξD = NC(CC(=O)O)C(=O)O
What was measured:
[1] = Plasma stability assay, mouse plasma; assay type: in vitro ADME; conditions: 4 h incubation, 37° C., read-out: % intact compound remaining after incubation, Mouse plasma
[2] = molecular target: T1, FAP-expressing human WI-38 fibroblasts (Homo sapiens, UniProt Q12884); assay: Competitive FACS binding assay; conditions: pIC50 Category (FACS), competition with 3 nM Cy5-labeled compound, WI-38 fibroblasts, 4° C., 1 hour
T1 construct: FAP-expressing human WI-38 fibroblasts (ECACC) were cultured in EMEM; host or cells: WI-38 human fibroblasts
T1 sequence (Q12884 1-760): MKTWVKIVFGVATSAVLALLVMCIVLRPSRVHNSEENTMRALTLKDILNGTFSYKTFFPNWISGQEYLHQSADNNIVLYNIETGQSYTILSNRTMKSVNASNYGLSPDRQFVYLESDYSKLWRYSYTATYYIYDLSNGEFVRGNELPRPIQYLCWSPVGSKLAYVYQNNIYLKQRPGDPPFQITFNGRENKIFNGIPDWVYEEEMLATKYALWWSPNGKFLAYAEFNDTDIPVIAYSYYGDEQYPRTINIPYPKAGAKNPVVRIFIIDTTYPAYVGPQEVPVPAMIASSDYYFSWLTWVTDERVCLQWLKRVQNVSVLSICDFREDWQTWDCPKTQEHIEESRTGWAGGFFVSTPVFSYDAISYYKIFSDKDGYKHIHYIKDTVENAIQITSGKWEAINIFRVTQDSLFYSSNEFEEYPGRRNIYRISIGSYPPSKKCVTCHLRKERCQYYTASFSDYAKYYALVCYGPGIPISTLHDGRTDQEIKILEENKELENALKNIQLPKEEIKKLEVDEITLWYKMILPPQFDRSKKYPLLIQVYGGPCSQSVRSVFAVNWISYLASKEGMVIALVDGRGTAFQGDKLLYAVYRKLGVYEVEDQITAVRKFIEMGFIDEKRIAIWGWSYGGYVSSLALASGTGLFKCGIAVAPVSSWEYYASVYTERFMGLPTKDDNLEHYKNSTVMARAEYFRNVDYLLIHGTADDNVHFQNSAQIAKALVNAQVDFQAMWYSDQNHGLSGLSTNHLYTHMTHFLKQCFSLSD
Method: Cells were analyzed in an Attune NxT flow cytometer. […]

Human recombinant FAP [3] = molecular target: T2, Human recombinant FAP (Homo sapiens, UniProt Q12884); assay: Surface plasmon resonance (Biacore) assay; assay type: binding
T2 sequence (Q12884 1-760): T1 sequence (Q12884 1-760)

recombinant human PREP = molecular target: T3, recombinant human PREP (Homo sapiens, UniProt P48147); assay: PREP protease activity assay; assay type: biochemical
T3 construct: purchased R&D systems 4308-SE
T3 sequence (P48147 1-710): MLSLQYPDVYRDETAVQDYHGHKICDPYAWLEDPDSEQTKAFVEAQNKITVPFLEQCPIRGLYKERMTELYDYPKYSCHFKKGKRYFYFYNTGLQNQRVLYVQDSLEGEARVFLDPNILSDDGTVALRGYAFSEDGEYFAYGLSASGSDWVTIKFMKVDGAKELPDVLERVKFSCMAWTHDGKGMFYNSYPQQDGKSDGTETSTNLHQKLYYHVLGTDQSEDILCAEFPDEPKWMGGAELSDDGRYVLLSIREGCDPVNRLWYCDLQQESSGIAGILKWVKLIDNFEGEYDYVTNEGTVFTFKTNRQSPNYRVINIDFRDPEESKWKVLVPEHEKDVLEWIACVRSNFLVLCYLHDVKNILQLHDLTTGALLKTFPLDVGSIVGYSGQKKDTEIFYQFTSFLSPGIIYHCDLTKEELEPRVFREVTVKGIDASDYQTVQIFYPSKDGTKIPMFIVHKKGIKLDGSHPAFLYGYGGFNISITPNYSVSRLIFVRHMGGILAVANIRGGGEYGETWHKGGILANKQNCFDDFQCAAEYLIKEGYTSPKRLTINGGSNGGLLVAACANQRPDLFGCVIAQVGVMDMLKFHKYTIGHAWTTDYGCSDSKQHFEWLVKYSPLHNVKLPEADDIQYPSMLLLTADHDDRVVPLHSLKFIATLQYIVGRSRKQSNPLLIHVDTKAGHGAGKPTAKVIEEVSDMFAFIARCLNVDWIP

Recombinant human DPP4 = molecular target: T4, Recombinant human DPP4 (Homo sapiens, UniProt P27487); assay: DPP4 protease activity assay; assay type: biochemical
T4 construct: purchased R&D systems 9168-SE
T4 sequence (P27487 whole entry): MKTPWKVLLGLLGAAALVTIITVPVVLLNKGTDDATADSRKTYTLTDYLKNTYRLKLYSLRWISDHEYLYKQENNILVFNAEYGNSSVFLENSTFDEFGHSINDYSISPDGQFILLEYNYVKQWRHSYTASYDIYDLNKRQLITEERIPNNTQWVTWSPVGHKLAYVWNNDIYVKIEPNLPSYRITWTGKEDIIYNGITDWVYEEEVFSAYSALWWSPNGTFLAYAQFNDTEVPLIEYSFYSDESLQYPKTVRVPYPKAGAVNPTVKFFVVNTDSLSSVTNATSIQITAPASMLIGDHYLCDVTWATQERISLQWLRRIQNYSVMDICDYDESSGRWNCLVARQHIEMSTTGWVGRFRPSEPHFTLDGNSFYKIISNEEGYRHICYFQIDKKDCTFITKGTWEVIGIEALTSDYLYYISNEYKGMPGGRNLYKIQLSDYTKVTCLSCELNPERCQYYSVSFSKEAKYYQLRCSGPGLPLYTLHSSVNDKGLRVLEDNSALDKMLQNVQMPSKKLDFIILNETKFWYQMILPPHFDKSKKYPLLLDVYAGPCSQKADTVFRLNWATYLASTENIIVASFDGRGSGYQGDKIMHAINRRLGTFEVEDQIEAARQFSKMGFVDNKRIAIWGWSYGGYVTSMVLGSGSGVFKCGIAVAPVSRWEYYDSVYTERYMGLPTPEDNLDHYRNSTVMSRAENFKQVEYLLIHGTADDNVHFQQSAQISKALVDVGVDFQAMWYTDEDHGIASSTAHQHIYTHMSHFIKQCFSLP

Human recombinant FAP [4] = molecular target: T2, Human recombinant FAP; assay: FRET-based FAP protease activity assay; assay type: biochemical; set-up: purchased R&D systems 3715-SE; conditions: pIC50 Category (Activity), recombinant human FAP, FRET substrate, 37° C.

Structure (SMILES)	remaining at 4 h, 9.8 µM [1]	IC50 [2]	Kd (Human recombinant FAP [3])	IC50 (recombinant human PREP)	IC50 (Recombinant human DPP4)	IC50 (Human recombinant FAP [4])
CCCCCC(=O)N[C@H]1CSCc2cccc(c2)CSC[C@@H](C(=O)N[C@@H](CC(=O)O)C(N)=O)NC(=O)[C@H](Cc2ccccc2)NC(=O)[C@H](CCC(N)=O)NC(=O)[C@H]([C@@H](C)O)NC(=O)[C@@H]2CCCN2C(=O)[C@@H]2CCCN2C1=O [3BP-3476, Hex-[Cys(3MeBn)-Pro-Pro-Thr-Gln-Phe-Cys]-Asp-NH2] (Hexanoyl-CPPTQFCD-NH2; linker 1-7 via mXylylene)		< 10 nM	< 10 nM	> 1000 nM	> 1000 nM	< 10 nM
CCCCCC(=O)N[C@H]1CSCc2cccc(c2)CSC[C@@H](C(N)=O)NC(=O)[C@H](Cc2ccccc2)NC(=O)[C@H](CCC(N)=O)NC(=O)[C@H]([C@@H](C)O)NC(=O)[C@@H]2CCCN2C(=O)[C@@H]2CCCN2C1=O [3BP-3349, Hex-[Cys(3MeBn)-Pro-Pro-Thr-Gln-Phe-Cys]-NH2]		10 to 79.4 nM	< 10 nM	> 1000 nM	> 1000 nM	< 10 nM
CSCC[C@H](NC(C)=O)C(=O)N[C@H]1CSCc2cccc(c2)CSC[C@@H](C(=O)N[C@@H](CC(=O)O)C(=O)N[C@@H](Cc2c[nH]cn2)C(=O)N[C@@H](Cc2ccccc2)C(=O)N[C@@H](CCCNC(=N)N)C(=O)N[C@@H](CC(=O)O)C(N)=O)NC(=O)[C@H](Cc2ccccc2)NC(=O)[C@H](CCC(=O)O)NC(=O)[C@H]([C@@H](C)O)NC(=O)[C@@H]2CCCN2C(=O)[C@@H]2CCCN2C1=O [3BP-2975, Ac-Met-[Cys(3MeBn)-Pro-Pro-Thr-Glu-Phe-Cys]-Asp-His-Phe-Arg-Asp-NH2] (Ac-MCPPTEFCDHFRD-NH2; linker 2-8 via mXylylene)	100%	< 10 nM	< 10 nM			< 10 nM
CC(=O)N[C@H]1CSCc2cccc(c2)CSC[C@@H](C(=O)N[C@@H](CC(=O)O)C(=O)N[C@@H](Cc2c[nH]cn2)C(=O)N[C@@H](Cc2ccccc2)C(=O)N[C@@H](CCCNC(=N)N)C(=O)N[C@@H](CC(=O)O)C(N)=O)NC(=O)[C@H](Cc2ccccc2)NC(=O)[C@H](CCC(=O)O)NC(=O)[C@H]([C@@H](C)O)NC(=O)[C@@H]2CCCN2C(=O)[C@@H]2CCCN2C1=O [3BP-3202, Ac-[Cys(3MeBn)-Pro-Pro-Thr-Glu-Phe-Cys]-Asp-His-Phe-Arg-Asp-NH2] (Ac-CPPTEFCDHFRD-NH2; linker 1-7 via mXylylene)	78%	< 10 nM	< 10 nM			< 10 nM

Further lines, results first:

remaining at 4 h, 9.8 µM [1]	IC50 [2]	Kd (Human recombinant FAP [3])	IC50 (recombinant human PREP)	IC50 (Recombinant human DPP4)	IC50 (Human recombinant FAP [4])	Structure (SMILES)
75%	10 to 79.4 nM	< 10 nM	> 1000 nM	> 1000 nM	< 10 nM	CCCC[C@H](NC(=O)CCC(=O)NCCCOCCOCCOCCCNC(=O)CN1CCN(CC(=O)O)CCN(CC(=O)O)CCN(CC(=O)O)CC1)C(=O)N[C@H]1CSCc2cccc(c2)CSC[C@@H](C(=O)NC(CC(=O)O)C(N)=O)NC(=O)[C@H](Cc2ccccc2)NC(=O)[C@H](CCC(=O)O)NC(=O)[C@H]([C@@H](C)O)NC(=O)[C@@H]2CCCN2C(=O)[C@@H]2CCCN2C1=O (stereo partly drawn) [3BP-3320, DOTA-Ttds-Nle-[Cys(3MeBn)-Pro-Pro-Thr-Glu-Phe-Cys]-Asp-NH2] ({X2-Suc}-[Nle]CPPTEFC[ξD]-NH2; linker 2-8 via mXylylene)
	100 to 794 nM		> 1000 nM	> 1000 nM	10 to 79.4 nM	CCCCCC(=O)N[C@H]1CSCc2cccc(c2)CSC[C@@H](C(N)=O)NC(=O)[C@H](Cc2ccccc2)NC(=O)[C@H](CCC(=O)O)NC(=O)[C@H]([C@@H](C)O)NC(=O)[C@@H]2CCCN2C(=O)[C@@H]2CCCN2C1=O [3BP-3287, Hex-[Cys(3MeBn)-Pro-Pro-Thr-Glu-Phe-Cys]-NH2] (Hexanoyl-CPPTEFC-NH2; linker 1-7 via mXylylene)
55%	< 10 nM	< 10 nM	> 1000 nM	> 1000 nM	< 10 nM	CCCCCC(=O)N[C@H]1CSCc2cccc(c2)CSC[C@@H](C(=O)N[C@@H](CC(=O)O)C(=O)N[C@@H](Cc2c[nH]cn2)C(=O)N[C@@H](Cc2ccccc2)C(=O)N[C@@H](CCCNC(=N)N)C(=O)N[C@@H](CC(=O)O)C(=O)NCCCOCCOCCOCCCNC(=O)CCC(=O)N[C@@H](CCCCNC(=O)CN2CCN(CC(=O)O)CCN(CC(=O)O)CCN(CC(=O)O)CC2)C(N)=O)NC(=O)[C@H](Cc2ccccc2)NC(=O)[C@H](CCC(=O)O)NC(=O)[C@H]([C@@H](C)O)NC(=O)[C@@H]2CCCN2C(=O)[C@@H]2CCCN2C1=O [3BP-3105, Hex-[Cys(3MeBn)-Pro-Pro-Thr-Glu-Phe-Cys]-Asp-His-Phe-Arg-Asp-Ttds-Lys(DOTA)-NH2] (Hexanoyl-CPPTEFCDHFRD-X3; linker 1-7 via mXylylene)
	< 10 nM		> 1000 nM	> 1000 nM	< 10 nM	CSCC[C@H](N)C(=O)N[C@H]1CSCc2cccc(c2)CSC[C@@H](C(=O)N[C@@H](CC(=O)O)C(=O)N[C@@H](Cc2c[nH]cn2)C(=O)N[C@@H](Cc2ccccc2)C(=O)N[C@@H](CCCNC(=N)N)C(=O)N[C@@H](CC(=O)O)C(=O)NCCCOCCOCCOCCCNC(=O)CCC(=O)N[C@@H](CCCCNC(=O)CCCC[C@@H]2SC[C@@H]3NC(=O)N[C@@H]32)C(N)=O)NC(=O)[C@H](Cc2ccccc2)NC(=O)[C@H](CCC(=O)O)NC(=O)[C@H]([C@@H](C)O)NC(=O)[C@@H]2CCCN2C(=O)[C@@H]2CCCN2C1=O [3BP-2881, H-Met-[Cys(3MeBn)-Pro-Pro-Thr-Glu-Phe-Cys]-Asp-His-Phe-Arg-Asp-Ttds-Lys(Bio)-NH2] (H-MCPPTEFCDHFRD-X6; linker 2-8 via mXylylene)
92%	< 10 nM	< 10 nM			< 10 nM	CCCCCC(=O)N[C@H]1CSCc2cccc(c2)CSC[C@@H](C(=O)N[C@@H](CC(=O)O)C(=O)N[C@@H](Cc2c[nH]cn2)C(=O)N[C@@H](Cc2ccccc2)C(=O)N[C@@H](CCCNC(=N)N)C(=O)N[C@@H](CC(=O)O)C(N)=O)NC(=O)[C@H](Cc2ccccc2)NC(=O)[C@H](CCC(=O)O)NC(=O)[C@H]([C@@H](C)O)NC(=O)[C@@H]2CCCN2C(=O)[C@@H]2CCCN2C1=O [3BP-2974, Hex-[Cys(3MeBn)-Pro-Pro-Thr-Glu-Phe-Cys]-Asp-His-Phe-Arg-Asp-NH2] (Hexanoyl-CPPTEFCDHFRD-NH2; linker 1-7 via mXylylene)
79%	10 to 79.4 nM				10 to 79.4 nM	CSCC[C@H](NC(C)=O)C(=O)N[C@H]1CSCc2cccc(c2)CSC[C@@H](C(=O)N[C@@H](CC(=O)O)C(=O)N[C@@H](Cc2c[nH]cn2)C(=O)N[C@@H](Cc2ccccc2)C(=O)N[C@@H](CCCNC(=N)N)C(=O)N[C@@H](CC(=O)O)C(N)=O)NC(=O)[C@H](Cc2ccccc2)NC(=O)[C@H](CCC(=O)O)NC(=O)[C@H]([C@@H](C)O)NC(=O)[C@H]2CCCN2C(=O)[C@@H]2CCCN2C1=O [3BP-3177, Ac-Met-[Cys(3MeBn)-Pro-pro-Thr-Glu-Phe-Cys]-Asp-His-Phe-Arg-Asp-NH2] (Ac-MCP[dP]TEFCDHFRD-NH2; linker 2-8 via mXylylene)
